Biological target: T1, Human TRPC6 (Homo sapiens, UniProt Q9Y210)
T1 construct: expressed in transfected cells
T1 sequence (Q9Y210 1-931): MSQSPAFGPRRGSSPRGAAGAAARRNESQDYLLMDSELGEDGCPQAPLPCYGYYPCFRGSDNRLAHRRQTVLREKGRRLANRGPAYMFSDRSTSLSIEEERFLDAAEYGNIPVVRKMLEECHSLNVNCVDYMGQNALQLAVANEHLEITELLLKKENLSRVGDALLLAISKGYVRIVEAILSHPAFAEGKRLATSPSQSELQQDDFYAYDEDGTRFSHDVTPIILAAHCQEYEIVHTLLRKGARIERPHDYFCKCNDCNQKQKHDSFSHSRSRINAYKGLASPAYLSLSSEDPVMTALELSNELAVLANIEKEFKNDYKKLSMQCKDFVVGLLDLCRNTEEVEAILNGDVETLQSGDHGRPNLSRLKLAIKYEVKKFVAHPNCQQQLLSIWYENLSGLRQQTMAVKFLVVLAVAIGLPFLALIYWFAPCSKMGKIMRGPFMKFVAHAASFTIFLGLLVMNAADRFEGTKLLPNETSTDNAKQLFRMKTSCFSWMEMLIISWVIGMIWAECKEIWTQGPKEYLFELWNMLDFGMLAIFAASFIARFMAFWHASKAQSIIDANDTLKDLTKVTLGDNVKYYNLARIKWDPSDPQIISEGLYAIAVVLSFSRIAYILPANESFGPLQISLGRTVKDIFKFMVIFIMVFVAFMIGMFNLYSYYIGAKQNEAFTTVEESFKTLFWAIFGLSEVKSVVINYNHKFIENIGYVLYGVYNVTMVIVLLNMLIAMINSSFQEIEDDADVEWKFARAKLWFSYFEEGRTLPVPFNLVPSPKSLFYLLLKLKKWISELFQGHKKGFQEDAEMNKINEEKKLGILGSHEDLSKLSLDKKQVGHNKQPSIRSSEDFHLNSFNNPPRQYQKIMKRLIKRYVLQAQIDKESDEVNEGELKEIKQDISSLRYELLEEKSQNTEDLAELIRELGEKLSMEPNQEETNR
Assay: Evaluation of TRPC6 channel inhibitory activity (1), FLIPR Calcium 5 Assay Kit, OAG stimulation (Compound Nos. 1-1293)
Format: cell-based
Details: Human TRPC6 stably-expressing cells, OAG 30 μM, FLIPR Calcium 5 Assay Kit; read-out: Inhibitory activity (pIC50 class) (converted)
Procedure, shortened: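 Stable human TRPC6 line; fluorescent Ca2+ dye loading, then 20 min compound exposure before 30 μM OAG trigger. Peak-minus-baseline signal converted to % inhibition against untreated and unstimulated wells; potency given as pIC50 band.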

| Compound | IC50 [nM] |
| --- | --- |
| Cn1nc(N2CCCC2)cc1Oc1cc(C#N)ccc1-c1ncc(CN)cn1 [compound 625, 4-[5-(aminomethyl)pyrimidin-2-yl]-3-(2-methyl-5-pyrrolidin-1-ylpyrazol-3-yl)oxybenzonitrile] | < 10 |
| Cn1nc(N2CCCCC2)cc1Oc1cc(C#N)ccc1-c1ncc(CCN)cn1 [compound 627, 4-[5-(2-aminoethyl)pyrimidin-2-yl]-3-(2-methyl-5-piperidin-1-ylpyrazol-3-yl)oxybenzonitrile] | < 10 |
| Cn1nc(N2CCCC2)cc1Oc1cc(C#N)ccc1-c1ncc(CCN)cn1 [compound 628, 4-[5-(2-aminoethyl)pyrimidin-2-yl]-3-(2-methyl-5-pyrrolidin-1-ylpyrazol-3-yl)oxybenzonitrile] | < 10 |
| CN(C)c1cc(Oc2cc(C#N)ccc2-c2ncc(CCN)cn2)n(C)n1 [compound 629, 4-[5-(2-aminoethyl)pyrimidin-2-yl]-3-[5-(dimethylamino)-2-methylpyrazol-3-yl]oxybenzonitrile] | < 10 |
| Cc1cc(Oc2cc(C#N)ccc2-c2cc(CCN)ccn2)cc(N2CCOCC2)n1 [compound 638, 4-[4-(2-aminoethyl)pyridin-2-yl]-3-(2-methyl-6-morpholin-4-ylpyridin-4-yl)oxybenzonitrile] | 10 to 1000 |
| Cn1nc(C2CC2)cc1Oc1cc(C#N)ccc1-c1ccc(CN)n2cnnc12 [compound 641, 4-[5-(aminomethyl)-[1,2,4]triazolo[4,3-a]pyridin-8-yl]-3-(5-cyclopropyl-2-methylpyrazol-3-yl)oxybenzonitrile] | 10 to 1000 |
| Cn1nc(-c2ccccn2)cc1Oc1cc(C#N)ccc1-c1cc(CN)ccn1 [compound 642, 4-[4-(aminomethyl)pyridin-2-yl]-3-(2-methyl-5-pyridin-2-ylpyrazol-3-yl)oxybenzonitrile] | < 10 |
| Cc1cc(Oc2cc(C#N)ccc2-c2ccc(CN)cn2)cc(NC2CC2)n1 [compound 645, 4-[5-(aminomethyl)pyridin-2-yl]-3-[2-(cyclopropylamino)-6-methylpyridin-4-yl]oxybenzonitrile] | 10 to 1000 |
| Cc1cc(Oc2cc(C#N)ccc2-c2ccc(CN)cn2)cc(NC2CCOCC2)n1 [compound 647, 4-[5-(aminomethyl)pyridin-2-yl]-3-[2-methyl-6-(oxan-4-ylamino)pyridin-4-yl]oxybenzonitrile] | > 1000 |
| Cc1cc(Oc2cc(C#N)ccc2-c2ncc(CN)cn2)cc(NC2CCOCC2)n1 [compound 648, 4-[5-(aminomethyl)pyrimidin-2-yl]-3-[2-methyl-6-(oxan-4-ylamino)pyridin-4-yl]oxybenzonitrile] | > 1000 |
| Cn1nc(-c2ccc(F)cn2)cc1Oc1cc(C#N)ccc1-c1ncc(CN)cn1 [compound 651, 4-[5-(aminomethyl)pyrimidin-2-yl]-3-[5-(5-fluoropyridin-2-yl)-2-methylpyrazol-3-yl]oxybenzonitrile] | < 10 |
| Cc1ccnc(-c2cc(Oc3cc(C#N)ccc3-c3ncc(CN)cn3)n(C)n2)c1 [compound 652, 4-[5-(aminomethyl)pyrimidin-2-yl]-3-[2-methyl-5-(4-methylpyridin-2-yl)pyrazol-3-yl]oxybenzonitrile] | < 10 |
| Cc1nc(Oc2cc(C#N)ccc2-c2ccc(CCN)cn2)cc(N2CCN(S(C)(=O)=O)CC2)n1 [compound 654, 4-[5-(2-aminoethyl)pyridin-2-yl]-3-[2-methyl-6-(4-methylsulfonylpiperazin-1-yl)pyrimidin-4-yl]oxybenzonitrile] | > 1000 |
| CCN(CC)c1cc(Oc2cc(C#N)ccc2-c2ncc(CCN)cn2)n(C)n1 [compound 656, 4-[5-(2-aminoethyl)pyrimidin-2-yl]-3-[5-(diethylamino)-2-methylpyrazol-3-yl]oxybenzonitrile] | < 10 |

Now from value to compound:

| IC50 [nM] | Compound |
| --- | --- |
| < 10 | CN(C)c1cc(Oc2cc(C#N)ccc2-c2ncc(CN)cn2)n(C)n1 [compound 626, 4-[5-(aminomethyl)pyrimidin-2-yl]-3-[5-(dimethylamino)-2-methylpyrazol-3-yl]oxybenzonitrile] |
| 10 to 1000 | Cc1nc(NC(C)C)cc(Oc2cc(C#N)ccc2-c2ncc(CN)cn2)n1 [compound 630, 4-[5-(aminomethyl)pyrimidin-2-yl]-3-[2-methyl-6-(propan-2-ylamino)pyrimidin-4 yl]oxybenzonitrile] |
| 10 to 1000 | CCNc1cc(Oc2cc(C#N)ccc2-c2ncc(CN)cn2)nc(C)n1 [compound 631, 4-[5-(aminomethyl)pyrimidin-2-yl]-3-[6-(ethylamino)-2-methylpyrimidin-4-yl]oxybenzonitrile] |
| 10 to 1000 | CCCNc1cc(Oc2cc(C#N)ccc2-c2ncc(CN)cn2)nc(C)n1 [compound 632, 4-[5-(aminomethyl)pyrimidin-2-yl]-3-[2-methyl-6-(propylamino)pyrimidin-4-yl]oxybenzonitrile] |
| 10 to 1000 | Cc1nc(NC2CC2)cc(Oc2cc(C#N)ccc2-c2ncc(CN)cn2)n1 [compound 633, 4-[5-(aminomethyl)pyrimidin-2-yl]-3-[6-(cyclopropylamino)-2-methylpyrimidin-4-yl]oxybenzonitrile] |
| < 10 | Cc1nc(NCC(C)C)cc(Oc2cc(C#N)ccc2-c2ncc(CN)cn2)n1 [compound 634, 4-[5-(aminomethyl)pyrimidin-2-yl]-3-[2-methyl-6-(2-methylpropylamino)pyrimidin-4-yl]oxybenzonitrile] |
| > 1000 | Cc1nc(NC2CCOCC2)cc(Oc2cc(C#N)ccc2-c2ncc(CN)cn2)n1 [compound 635, 4-[5-(aminomethyl)pyrimidin-2-yl]-3-[2-methyl-6-(oxan-4 ylamino)pyrimidin-4-yl]oxybenzonitrile] |
| > 1000 | Cc1nc(NCC2CCOCC2)cc(Oc2cc(C#N)ccc2-c2ncc(CN)cn2)n1 [compound 636, 4-[5-(aminomethyl)pyrimidin-2-yl]-3-[2-methyl-6-(oxan-4-ylmethylamino)pyrimidin-4-yl]oxybenzonitrile] |
| < 10 | Cc1nc(NC(C)(C)C)cc(Oc2cc(C#N)ccc2-c2ncc(CN)cn2)n1 [compound 637, 4-[5-(aminomethyl)pyrimidin-2-yl]-3-[6-(tert-butylamino)-2-methylpyrimidin-4-yl]oxybenzonitrile] |
| > 1000 | COCCNc1cc(Oc2cc(C#N)ccc2-c2ncc(CN)cn2)nc(C)n1 [compound 639, 4-[5-(aminomethyl)pyrimidin-2-yl]-3-[6-(2-methoxyethylamino)-2-methylpyrimidin-4-yl]oxybenzonitrile] |
| 10 to 1000 | Cc1nc(NCC(F)(F)F)cc(Oc2cc(C#N)ccc2-c2ncc(CN)cn2)n1 [compound 640, 4-[5-(aminomethyl)pyrimidin-2-yl]-3-[2-methyl-6-(2,2,2-trifluoroethylamino)pyrimidin-4-yl]oxybenzonitrile] |
| 10 to 1000 | CCNc1cc(Oc2cc(C#N)ccc2-c2ncc(CN)cn2)cc(C)n1 [compound 643, 4-[5-(aminomethyl)pyrimidin-2-yl]-3-[2-(ethylamino)-6-methylpyridin-4-yl]oxybenzonitrile] |
| < 10 | Cc1cc(Oc2cc(C#N)ccc2-c2ncc(CN)cn2)cc(NC(C)C)n1 [compound 644, 4-[5-(aminomethyl)pyrimidin-2-yl]-3-[2-methyl-6-(propan-2-ylamino)pyridin-4-yl]oxybenzonitrile] |
| 10 to 1000 | Cc1cc(Oc2cc(C#N)ccc2-c2ncc(CN)cn2)cc(NC2CC2)n1 [compound 646, 4-[5-(aminomethyl)pyrimidin-2-yl]-3-[2-(cyclopropylamino)-6-methylpyridin-4-yl]oxybenzonitrile] |
| 10 to 1000 | Cn1nc(-c2ncccc2F)cc1Oc1cc(C#N)ccc1-c1ncc(CN)cn1 [compound 649, 4-[5-(aminomethyl)pyrimidin-2-yl]-3-[5-(3-fluoropyridin-2-yl)-2-methylpyrazol-3-yl]oxybenzonitrile] |
| 10 to 1000 | Cc1cccc(-c2cc(Oc3cc(C#N)ccc3-c3ncc(CN)cn3)n(C)n2)n1 [compound 650, 4-[5-(aminomethyl)pyrimidin-2-yl]-3-[2-methyl-5-(6-methylpyridin-2-yl)pyrazol-3-yl]oxybenzonitrile] |
| 10 to 1000 | Cc1nc(Oc2cc(C#N)ccc2-c2ncc(CN)cn2)cc(N2CC(F)(F)C2)n1 [compound 653, 4-[5-(aminomethyl)pyrimidin-2-yl]-3-[6-(3,3-difluoroazetidin-1-yl)-2-methylpyrimidin-4-yl]oxybenzonitrile] |
| < 10 | CCN(CC)c1cc(Oc2cc(C#N)ccc2-c2ncc(CN)cn2)n(C)n1 [compound 655, 4-[5-(aminomethyl)pyrimidin-2-yl]-3-[5-(diethylamino)-2-methylpyrazol-3-yl]oxybenzonitrile] |
